Results as given in article PMC6006164, “Natural cyclopeptide RA-V inhibits the NF-κB signaling pathway by targeting TAK1” (Cell Death & Disease, 2018).

Columns and labels:
TAK1–TRAF6 interaction = target: T1, TAK1–TRAF6 interaction (Homo sapiens, UniProt O43318); experiment: Co-immunoprecipitation of TAK1 and TRAF6; assay type: cell-based; details: HEK293T, Flag-TAK1 and HA-TRAF6; RA-V 800 nM 6 h
T1 construct: expressed in transfected cells; host or cells: HEK293T
T1 sequence (O43318 1-579 isoform O43318-2): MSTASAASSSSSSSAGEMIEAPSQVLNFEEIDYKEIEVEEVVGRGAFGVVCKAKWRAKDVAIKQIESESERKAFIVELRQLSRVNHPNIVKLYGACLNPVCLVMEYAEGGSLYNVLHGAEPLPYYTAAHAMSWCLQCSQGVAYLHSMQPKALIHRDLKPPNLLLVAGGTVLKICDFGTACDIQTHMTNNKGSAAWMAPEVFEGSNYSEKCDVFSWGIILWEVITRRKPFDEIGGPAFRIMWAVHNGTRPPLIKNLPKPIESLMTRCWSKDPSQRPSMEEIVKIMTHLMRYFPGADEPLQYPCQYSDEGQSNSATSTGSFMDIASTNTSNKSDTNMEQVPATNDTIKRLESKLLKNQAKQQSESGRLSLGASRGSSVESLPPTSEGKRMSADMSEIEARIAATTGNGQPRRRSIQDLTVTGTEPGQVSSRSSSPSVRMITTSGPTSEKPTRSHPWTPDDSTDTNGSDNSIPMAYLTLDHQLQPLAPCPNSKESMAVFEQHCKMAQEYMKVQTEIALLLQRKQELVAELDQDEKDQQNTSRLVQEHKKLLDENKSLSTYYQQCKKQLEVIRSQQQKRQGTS
Procedure: Fig. 4 RA-V blocks the interaction between TAK1 and TAB2. a RA-V blocked the exogenous TAK1–TAB2 interaction. HEK293T cells were transfected with Flag-TAK1 and HA-TAB2 for 24 h and then incubated with various concentrations of RA-V for 6 h. […] HEK293T cells were transfected with Flag-TAK1 and HA-TRAF6 or HA-TAB1 for 24 h and then incubated with RA-V (800 nM) for 6 h. The cell lysates were immunoprecipitated with HA antibody, and immunoblots were performed with the indicated antibodies. d RA-V blocked the endogenous TAK1–TAB2 interaction. HEK293T (left) or RAW264.7 (right) cells were incubated with 800 nM RA-V for 6 h and stimulated with 10 ng/mL TNF-α for 2 h or 1 μg/mL LPS for 3 h, respectively. The cell lysates were immunoprecipitated with TAK1 antibody or control IgG and then immunoblotted with the indicated antibodies. Each experiment was repeated at least three times
The cell lysates were prepared using radioimmunoprecipitation (RIPA) buffer containing 50 mM Tris-HCl pH 7.4, 150 mM NaCl, 1 mM ethylenediaminetetraacetic acid, 1% Triton X-100, 0.5% deoxycholate, and 0.1% sodium dodecyl sulfate, to which protease inhibitors (Roche) were added. The lysates were incubated with the indicated antibodies before adding 20 μL of Protein A/G agarose for 2 h. After four washes with the same buffer, the immunoprecipitates were boiled in 2 × SDS loading buffer.

[1] = test system: LPS-induced endotoxin shock; experiment: Mouse endotoxin shock model; assay type: in vivo, mice
Procedure: The above results prompted us to explore the in vivo effect of RA-V on the NF-κB signaling pathway. We extended our study to the mouse endotoxin shock model, in which mice were intraperitoneally injected with LPS (10 mg/kg or 20 mg/kg) and evaluated for changes by examining physiological parameters induced by the inflammatory response.
First, the mice were intravenously injected with RA-V micelles (0.25 mg/kg body weight) or control micelles at three time points: 52, 28, and 4 h before they were intraperitoneally injected with phosphate-buffered saline (PBS) or LPS (10 mg/kg). One hour after LPS injection, we examined proinflammatory cytokines (IL-6 and TNF-α) production at the transcriptional and translational levels. […] As expected, after receiving the LPS injection, all of the control mice died within 36 h, whereas 60% of the RA-V-treated mice survived (Fig. 2d). To further confirm the in vivo effect of RA-V on the NF-κB pathway, we performed the endotoxin shock model on NF-κB-luciferase transgenic mice.
Fig. 2 RA-V prevents endotoxic shock and inhibits NF-κB activation in vivo. a–c RA-V prevents endotoxic shock in vivo. Mice (n = 6 per group) were intravenously injected with RA-V micelles (0.25 mg/kg body weight) or control micelles 52, 28, and 4 h before an intraperitoneal injection of LPS (10 mg/kg). One hour later, the relative levels of IL-6 and TNF-α mRNAs in the liver were assessed by quantitative RT-PCR (a), the serum IL-6 and TNF-α levels were quantified by ELISA (b), and the expression of p65 and IκBα phosphorylation in the liver were measured by immunoblot analysis c. d RA-V improved animal survival. Mice (n = 20 per group) were intravenously injected with RA-V micelles (0.25 mg/kg body weight) or control micelles 52, 28, and 4 h before intraperitoneal injection of LPS (20 mg/kg). Animal survival was recorded in 2–3 hours intervals. e RA-V inhibits NF-κB activation in vivo. The NF-κB-luc transgenic mice (n = 4 per group) were intravenously injected with RA-V micelles (0.25 mg/kg body weight) or control micelles 52, 28, and 4 h before intraperitoneal injection with LPS (10 mg/kg). NF-κB-luc transgenic mice were photographed at different time points and representative images are shown. The bioluminescent signals from all of the mice were detected and quantified. The data are presented as the means ± S.D. *, p < 0.05; **, p < 0.01

[2] = RA-V micelles 0.25 mg/kg i.v. 52, 28, 4 h before LPS 10 mg/kg i.p., 1 h after LPS, n = 6

In the case of RA-V, the “TAK1–TRAF6 interaction” value (TAK1–TRAF6 interaction) is reported as “does not disrupt”, the “IL-6 and TNF-α in the serum (ELISA)” value [1, 2] is reported as “reduced expression” and the “expression of IL-6 and TNF-α mRNAs in liver tissue” value [1, 2] is reported as “significantly decreased”. For the same substance, the “phosphorylation of IκBα and p65 in liver tissue” value ([1]; RA-V micelles 0.25 mg/kg i.v. 52, 28, 4 h before LPS 10 mg/kg i.p., immunoblot) was “clearly inhibited” and the “survival of mice after lethal dose of LPS” value ([1]; RA-V micelles 0.25 mg/kg i.v. 52, 28, 4 h before LPS 20 mg/kg i.p., n = 20, all control mice died within 36 h) was 60%.
